System: APP/PS1 mutant mice
Assay: HFS-induced hippocampal LTP in WT and APP/PS1 mice after in vivo treatment
Parameters: species or system mouse
Details: Rhy oral 50 mg·kg−1·day−1 for 3 weeks
Excerpt: APP/PS1 double-transgenic mice were obtained from Jackson Laboratory (B6C3-Tg[APPswe, PSEN1dE9]85Dbo/J)^66. These mice were generated by incorporating a human/murine APP construct bearing the Swedish double mutation and the exon-9-deleted PSEN1 mutation (APPswe+PSEN1/dE9). APP transgenic mice (Tg2576) expressing a double mutant of human AβPP (Lys^670→Asn^670, Met^671→Leu^671) were also used^31. Both sexes were used for experiments, and all mice used in this study were produced by the Animal Care Facility of The Hong Kong University of Science and Technology. The genotype was confirmed by polymerase chain reaction analysis of tail biopsies. Four to five mice of the same sex were housed in a cage with food and water ad libitum with a 12-hour light/dark cycle.
To investigate the effect of blocking EphA4 signaling by KYL peptide in AD mice, 4-5-month-old AD transgenic mice were implanted with Alzet mini-osmotic pumps, model 1004, pumping its contents at 0.11 μL/h for 28 days. Pumps were loaded with either 0.23 μg/μL KYL peptide (17 μg) or vehicle solvent in artificial cerebrospinal fluid (CSF). The mini-osmotic pumps were adjusted intracerebroventricularly in the right hemisphere. EphA4 in the CA1 regions of APP/PS1 mice was knocked down by injecting vesicular stomatitis virus glycoprotein G-pseudotyped lentiviral particles with pFUGW-shEphA4 bilaterally into the corresponding regions as described previously^58.
For LTP recordings, mouse brains were immediately dissected after sacrifice and soaked in ice-cold 95% O2/5% CO2 (aCSF)^58. Brain slices (300 μm thick) were prepared using a vibrating tissue slicer (HM650V; Thermo), and soaked in oxygenated buffer for 2 h at 32° C. […] For treatment with EphA4 inhibitors, the slices were pretreated with peptides or chemicals for 1 h before application of Aβ. fEPSPs were recorded using a MED64 multichannel recording system, and the data were collected from the dendritic layer of area CA1 at a sampling rate of 10 kHz. For each slice, the baseline stimulus intensity was set at the level that elicited ˜50% of the maximum fEPSP response determined according to the input-output curve. […] The magnitude of LTP was quantified as a percentage change in the fEPSP slope (10%-90%) taken during the 60-min interval after LTP induction.
WT and APP/PS1 mutant (Tg) mice were orally administered with corylin ([…]) by daily gavage for 3-4 weeks prior to LTP measurements. LTP induced by 3 trains of HFS (100 Hz for 1 s delivered 30 s apart) in the CA1 region of the SC pathway of the hippocampus was measured. The magnitude of LTP was quantified as the percentage change in the fEPSP slope (10-90%) taken during the 60-min interval after LTP induction.

CC[C@H]1CN2CC[C@]3(C(=O)Nc4ccccc43)[C@@H]2C[C@@H]1/C(=C\OC)C(=O)OC [Rhy, methyl (7β,16E,20α)-16-(methoxymethylene)-2-oxocorynoxan-17-oate]
mean fEPSP slope, last 10 min after LTP induction (APP/PS1 (Tg) mice, Tg control 147.6±3.5%): 198.1±8.9% | mean fEPSP slope, last 10 min after LTP induction (WT mice, WT control 194.0±7.0%): 180.5±7.7%

From patent publication US9629830B2, “EphA4 inhibitors as neuroprotective agents” (The Hong Kong University of Science and Technology, priority 2013, dated 2017)
